# Source: PubChem BioAssay AID2060355 (Molecular Pharmacology Branch, DTP, NCI, 2025)
# Tested on: 485368-065-R4-J2-PDC spheroids with HUVEC/MSC, viability
# Assay: Anticancer human tumor 485368-065-R4-J2-PDC patient-derived pancreatic carcinoma cell line growth inhibition [TAK]
# Conditions: for IC50: curve of first compound; for viability, T/C: stronger effect = lower value
# Procedure, shortened: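 Spheroids of 60% malignant cells, 25% HUVEC and 15% hMSC were exposed to targeted agents combined with TAK-243 or ipatasertib. Concentrations started at or near clinical Cmax (10 microM if unknown) and descended in half-log steps.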
# [1] = second compound 0.3 µM, first compound 0.0316 µM
# [2] = second compound 0.3 µM, first compound 0.1 µM
# [3] = second compound 0.3 µM, first compound 0.316 µM
# [4] = second compound 0.3 µM, first compound 1 µM
# [5] = second compound 0.3 µM, first compound 3.16 µM
# [6] = second compound 0.3 µM, first compound 10 µM
# [7] = second compound 0.949 µM, first compound 0.0316 µM
# [8] = second compound 0.949 µM, first compound 0.1 µM
# [9] = second compound 0.949 µM, first compound 0.316 µM
# [10] = second compound 0.949 µM, first compound 1 µM
# [11] = second compound 0.949 µM, first compound 3.16 µM
# [12] = second compound 0.949 µM, first compound 10 µM
# [13] = second compound 3 µM, first compound 0.0316 µM
# [14] = second compound 3 µM, first compound 0.1 µM
# [15] = second compound 3 µM, first compound 0.316 µM
# [16] = second compound 3 µM, first compound 1 µM
# [17] = second compound 3 µM, first compound 3.16 µM
# [18] = second compound 3 µM, first compound 10 µM
# [19] = second compound 9.49 µM, first compound 0.0316 µM
# [20] = second compound 9.49 µM, first compound 0.1 µM
# [21] = second compound 9.49 µM, first compound 0.316 µM
# [22] = second compound 9.49 µM, first compound 1 µM
# [23] = second compound 9.49 µM, first compound 3.16 µM
# [24] = second compound 9.49 µM, first compound 10 µM
# [25] = second compound 30 µM, first compound 0.0316 µM
# [26] = second compound 30 µM, first compound 0.1 µM
# [27] = second compound 30 µM, first compound 0.316 µM
# [28] = second compound 30 µM, first compound 1 µM
# [29] = second compound 30 µM, first compound 3.16 µM
# [30] = second compound 30 µM, first compound 10 µM
# [31] = second compound 0.3 µM, first compound 0.000316 µM
# [32] = second compound 0.3 µM, first compound 0.001 µM
# [33] = second compound 0.3 µM, first compound 0.00316 µM
# [34] = second compound 0.3 µM, first compound 0.01 µM
# [35] = second compound 0.949 µM, first compound 0.000316 µM
# [36] = second compound 0.949 µM, first compound 0.001 µM
# [37] = second compound 0.949 µM, first compound 0.00316 µM
# [38] = second compound 0.949 µM, first compound 0.01 µM
# [39] = second compound 3 µM, first compound 0.000316 µM
# [40] = second compound 3 µM, first compound 0.001 µM
# [41] = second compound 3 µM, first compound 0.00316 µM
# [42] = second compound 3 µM, first compound 0.01 µM
# [43] = second compound 9.49 µM, first compound 0.000316 µM
# [44] = second compound 9.49 µM, first compound 0.001 µM
# [45] = second compound 9.49 µM, first compound 0.00316 µM
# [46] = second compound 9.49 µM, first compound 0.01 µM
# [47] = second compound 30 µM, first compound 0.000316 µM
# [48] = second compound 30 µM, first compound 0.001 µM
# [49] = second compound 30 µM, first compound 0.00316 µM
# [50] = second compound 30 µM, first compound 0.01 µM
# 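Further: spheroids exposed to compounds for seven days before readout.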
# 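Wherever viability, T/C is given: 100% = DMSO vehicle control wells.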
smiles,measurement,setting,value
CC(C)(C)c1nc(-c2cccc(NS(=O)(=O)c3c(F)cccc3F)c2F)c(-c2ccnc(N)n2)s1 + CC(C)NCC(C(=O)N1CCN(c2ncnc3c2C(C)CC3O)CC1)c1ccc(Cl)cc1,IC50,second compound 0.3 µM,2.66 µM
same,IC50,second compound 0.949 µM,0.589 µM
same,IC50,second compound 3 µM,0.432 µM
same,IC50,second compound 9.49 µM,0.353 µM
same,IC50,second compound 30 µM,0.305 µM
same,"viability, T/C",[1],104%
same,"viability, T/C",[2],92.8%
same,"viability, T/C",[3],71.8%
same,"viability, T/C",[4],52.9%
same,"viability, T/C",[5],50.4%
same,"viability, T/C",[6],47.8%
same,"viability, T/C",[7],101%
same,"viability, T/C",[8],91.3%
same,"viability, T/C",[9],63.4%
same,"viability, T/C",[10],38.5%
same,"viability, T/C",[11],30.9%
same,"viability, T/C",[12],28.1%
same,"viability, T/C",[13],98.2%
same,"viability, T/C",[14],83%
same,"viability, T/C",[15],57.2%
same,"viability, T/C",[16],31.9%
same,"viability, T/C",[17],21.2%
same,"viability, T/C",[18],18%
same,"viability, T/C",[19],93.4%
same,"viability, T/C",[20],80.2%
same,"viability, T/C",[21],52.5%
same,"viability, T/C",[22],28.3%
same,"viability, T/C",[23],18.5%
same,"viability, T/C",[24],17.5%
same,"viability, T/C",[25],77.2%
same,"viability, T/C",[26],69.9%
same,"viability, T/C",[27],49.8%
same,"viability, T/C",[28],24.8%
same,"viability, T/C",[29],16.4%
same,"viability, T/C",[30],15.3%
CC(C)CC(NC(=O)CNC(=O)c1cc(Cl)ccc1Cl)B1OC(=O)CC(CC(=O)O)(C(=O)O)O1 (stereo not given) + CC(C)NCC(C(=O)N1CCN(c2ncnc3c2C(C)CC3O)CC1)c1ccc(Cl)cc1,IC50,second compound 0.3 µM,0.0377 µM
same,IC50,second compound 0.949 µM,0.0313 µM
same,IC50,second compound 3 µM,0.0256 µM
same,IC50,second compound 9.49 µM,0.0248 µM
same,IC50,second compound 30 µM,0.0197 µM
same,"viability, T/C",[31],89.7%
same,"viability, T/C",[32],93.9%
same,"viability, T/C",[33],98.7%
same,"viability, T/C",[34],106%
same,"viability, T/C",[1],56.7%
same,"viability, T/C",[2],12.8%
same,"viability, T/C",[35],98.4%
same,"viability, T/C",[36],99%
same,"viability, T/C",[37],97.5%
same,"viability, T/C",[38],106%
same,"viability, T/C",[7],49.6%
same,"viability, T/C",[8],12.5%
same,"viability, T/C",[39],103%
same,"viability, T/C",[40],99.6%
same,"viability, T/C",[41],99.2%
same,"viability, T/C",[42],92.6%
same,"viability, T/C",[13],40.5%
same,"viability, T/C",[14],9.51%
same,"viability, T/C",[43],94.7%
same,"viability, T/C",[44],87.3%
same,"viability, T/C",[45],89.5%
same,"viability, T/C",[46],92.6%
same,"viability, T/C",[19],39%
same,"viability, T/C",[20],9.49%
same,"viability, T/C",[47],76.9%
same,"viability, T/C",[48],80.2%
same,"viability, T/C",[49],81%
same,"viability, T/C",[50],76.7%
same,"viability, T/C",[25],31.3%
same,"viability, T/C",[26],7.82%
CC(C)n1nc(-c2ccc3oc(N)nc3c2)c2c(N)ncnc21 + CC(C)NCC(C(=O)N1CCN(c2ncnc3c2C(C)CC3O)CC1)c1ccc(Cl)cc1,IC50,second compound 0.3 µM,0.0585 µM
same,IC50,second compound 0.949 µM,0.0293 µM
same,IC50,second compound 3 µM,0.0208 µM
same,IC50,second compound 9.49 µM,0.0101 µM
same,IC50,second compound 30 µM,0.00633 µM
same,"viability, T/C",[31],95.7%
same,"viability, T/C",[32],88%
same,"viability, T/C",[33],90.6%
same,"viability, T/C",[34],89.7%
same,"viability, T/C",[1],56.5%
same,"viability, T/C",[2],44.4%
same,"viability, T/C",[35],98.6%
same,"viability, T/C",[36],99.3%
same,"viability, T/C",[37],91.4%
same,"viability, T/C",[38],66.7%
same,"viability, T/C",[7],51.2%
same,"viability, T/C",[8],40.3%
same,"viability, T/C",[39],97.8%
same,"viability, T/C",[40],94.4%
same,"viability, T/C",[41],81.4%
same,"viability, T/C",[42],62.5%
same,"viability, T/C",[13],42.7%
same,"viability, T/C",[14],34.5%
same,"viability, T/C",[43],91.9%
same,"viability, T/C",[44],86.1%
same,"viability, T/C",[45],75.2%
same,"viability, T/C",[46],49.4%
same,"viability, T/C",[19],36.8%
same,"viability, T/C",[20],32.5%
same,"viability, T/C",[47],73.1%
same,"viability, T/C",[48],69.3%
same,"viability, T/C",[49],57.6%
same,"viability, T/C",[50],45.3%
same,"viability, T/C",[25],31.4%
same,"viability, T/C",[26],25.7%
CCCS(=O)(=O)Nc1ccc(F)c(C(=O)c2c[nH]c3ncc(-c4ccc(Cl)cc4)cc23)c1F + CC(C)NCC(C(=O)N1CCN(c2ncnc3c2C(C)CC3O)CC1)c1ccc(Cl)cc1,IC50,second compound 0.3 µM,> 100 µM
same,IC50,second compound 0.949 µM,> 100 µM
same,IC50,second compound 3 µM,6.76 µM
same,IC50,second compound 9.49 µM,6.08 µM
same,IC50,second compound 30 µM,4.18 µM
same,"viability, T/C",[3],107%
same,"viability, T/C",[4],101%
same,"viability, T/C",[5],93.5%
same,"viability, T/C",[6],50.3%
same,"viability, T/C","second compound 0.3 µM, first compound 31.6 µM",24.3%
same,"viability, T/C","second compound 0.3 µM, first compound 100 µM",80.8%
same,"viability, T/C",[9],103%
same,"viability, T/C",[10],100%
same,"viability, T/C",[11],85.7%
same,"viability, T/C",[12],40.8%
same,"viability, T/C","second compound 0.949 µM, first compound 31.6 µM",25.1%
same,"viability, T/C","second compound 0.949 µM, first compound 100 µM",85.1%
same,"viability, T/C",[15],101%
same,"viability, T/C",[16],99.5%
same,"viability, T/C",[17],78.1%
same,"viability, T/C",[18],34.7%
same,"viability, T/C","second compound 3 µM, first compound 31.6 µM",29.8%
same,"viability, T/C","second compound 3 µM, first compound 100 µM",19.4%
same,"viability, T/C",[21],96.7%
same,"viability, T/C",[22],95.6%
same,"viability, T/C",[23],77.4%
same,"viability, T/C",[24],28.8%
same,"viability, T/C","second compound 9.49 µM, first compound 31.6 µM",20.2%
same,"viability, T/C","second compound 9.49 µM, first compound 100 µM",14.8%
same,"viability, T/C",[27],84%
same,"viability, T/C",[28],83.8%
same,"viability, T/C",[29],62.7%
same,"viability, T/C",[30],10.1%
same,"viability, T/C","second compound 30 µM, first compound 31.6 µM",10.2%
same,"viability, T/C","second compound 30 µM, first compound 100 µM",9.85%
